Numbers after ± are expanded uncertainties.

Data set [1] in a line: wn = mass fraction of the nth substance listed. The settings on record: 100 kPa, Liquid, Vibrating tube method.
A short description of data set [2]: refractive index (Na D-line) (dimensionless); wn = mass fraction of the nth substance listed. The following applies: 100 kPa, Liquid, Standard Abbe refractometry.

As a reminder, the mass density is the mass of a sample divided by its volume. In general, refractive index refers to the speed of light in vacuum divided by its phase velocity in the sample. Regarding `[Cl-].[Li+]` [lithium chloride] + O, the mass density stood at 1287.19 ± 1.1 kg/m3 in data set [1] (288.15 K, w1 = 0.4413) and 1301.11 ± 1.1 kg/m3 in data set [1] (308.15 K, w1 = 0.4664). The refractive index in data set [2] (288.15 K, w1 = 0.4413) was determined as 1.4394 ± 0.0004; in data set [2] (308.15 K, w1 = 0.4664) it was 1.4365 ± 0.0004.
In the case of `O=S(=O)([O-])[O-].[Li+].[Li+]` [lithium sulfate] + O, the mass density in data set [1] (288.15 K, w1 = 0.2601) is listed as 1236.43 ± 1 kg/m3; in data set [1] (308.15 K, w1 = 0.2537), 1226.22 ± 1 kg/m3. Moreover, the refractive index is listed as 1.3845 ± 0.0004 in data set [2] (288.15 K, w1 = 0.2601) and 1.3738 ± 0.0004 in data set [2] (308.15 K, w1 = 0.2537).

The values are drawn from the NIST ThermoML archive (doi:10.1021/acs.jced.5b00805).
